This note sets out measurements from ChEMBL document CHEMBL5260859, “Discovery and structure-activity relationship study of 2-piperazinyl-benzothiazole derivatives as potent and selective PPARδ agonists” (Bioorg Med Chem, 2023).

The EC50 is the midpoint of the concentration-response curve.

Common to all, as to type: cell-based
For assay [1], the target named is T1, Peroxisome proliferator-activated receptor delta (Homo sapiens) (UniProt Q03181).
T1 sequence (whole entry): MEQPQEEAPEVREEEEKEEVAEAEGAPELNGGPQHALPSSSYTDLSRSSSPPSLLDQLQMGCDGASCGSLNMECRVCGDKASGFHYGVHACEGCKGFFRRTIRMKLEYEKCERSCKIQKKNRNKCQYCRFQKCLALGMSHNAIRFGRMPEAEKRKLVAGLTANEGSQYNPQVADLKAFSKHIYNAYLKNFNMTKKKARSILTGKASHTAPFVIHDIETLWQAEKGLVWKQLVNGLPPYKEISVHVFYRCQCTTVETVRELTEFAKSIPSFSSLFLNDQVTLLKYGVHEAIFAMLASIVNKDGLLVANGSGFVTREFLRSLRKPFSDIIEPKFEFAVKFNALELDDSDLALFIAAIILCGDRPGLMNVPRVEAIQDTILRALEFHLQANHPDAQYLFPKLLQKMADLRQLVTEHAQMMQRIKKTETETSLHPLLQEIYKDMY
Kind of assay: Agonist activity at Gal4-fused human PPAR-delta ligand binding domain expressed in CHO-K1 cells assessed as receptor transactivation incubated for 24 to 48 hrs by luciferase reporter gene assay relative to control. The note with it: time lower 24.0 hrs, time upper […]. For orientation: In a reporter assay the amount or activity of a reporter protein is the signal.

Assay [2] concerns the target T2, Peroxisome proliferator-activated receptor delta (Mus musculus) (UniProt P35396).
T2 sequence (whole entry): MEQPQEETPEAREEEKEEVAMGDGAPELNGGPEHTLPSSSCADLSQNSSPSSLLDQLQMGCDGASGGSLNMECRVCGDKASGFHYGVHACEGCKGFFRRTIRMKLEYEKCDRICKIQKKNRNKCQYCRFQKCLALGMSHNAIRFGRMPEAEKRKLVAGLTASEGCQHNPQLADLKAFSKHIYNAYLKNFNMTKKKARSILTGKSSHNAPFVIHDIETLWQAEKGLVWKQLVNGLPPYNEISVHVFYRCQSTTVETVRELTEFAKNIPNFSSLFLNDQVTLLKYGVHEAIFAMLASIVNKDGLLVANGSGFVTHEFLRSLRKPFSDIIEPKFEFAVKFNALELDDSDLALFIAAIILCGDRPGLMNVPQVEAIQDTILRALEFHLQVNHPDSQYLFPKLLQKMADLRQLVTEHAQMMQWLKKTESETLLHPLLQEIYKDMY
The experiment in a line: Agonist activity at Gal4-fused mouse PPAR-delta ligand binding domain expressed in CHO-K1 cells assessed as receptor transactivation incubated for 24 to 48 hrs by luciferase reporter gene assay relative to control. The following applies: time lower 24.0 hrs, time upper […].

For assay [3], the target named is T3, Peroxisome proliferator-activated receptor alpha (Mus musculus) (UniProt P23204).
T3 sequence (whole entry): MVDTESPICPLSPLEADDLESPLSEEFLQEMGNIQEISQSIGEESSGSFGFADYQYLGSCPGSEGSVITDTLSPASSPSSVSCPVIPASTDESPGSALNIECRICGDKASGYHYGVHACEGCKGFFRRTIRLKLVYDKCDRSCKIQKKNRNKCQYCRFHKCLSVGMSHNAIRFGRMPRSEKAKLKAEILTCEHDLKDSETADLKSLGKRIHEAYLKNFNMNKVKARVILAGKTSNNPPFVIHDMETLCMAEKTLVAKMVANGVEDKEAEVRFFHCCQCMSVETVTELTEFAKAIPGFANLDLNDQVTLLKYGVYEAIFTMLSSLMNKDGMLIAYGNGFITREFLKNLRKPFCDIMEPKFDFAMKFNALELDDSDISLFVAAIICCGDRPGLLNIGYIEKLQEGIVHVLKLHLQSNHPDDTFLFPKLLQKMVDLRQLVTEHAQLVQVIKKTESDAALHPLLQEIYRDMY
The experiment in a line: Agonist activity at Gal4-fused mouse PPAR-alpha ligand binding domain expressed in CHO-K1 cells assessed as receptor transactivation incubated for 24 to 48 hrs by luciferase reporter gene assay relative to control. The note with it: time lower 24.0 hrs, time upper […].

For another assay, the species on record is Homo sapiens. Kind of assay: Selectivity ratio of EC50 for agonist activity at Gal4-fused human PPAR-alpha ligand binding domain expressed in CHO-K1 cells to EC50 for agonist activity at Gal4-fused human PPAR-delta ligand binding domain expressed in CHO-K1 cells.
For assay [4], the species on record is Mus musculus. Kind of assay: Selectivity ratio of EC50 for agonist activity at Gal4-fused mouse PPAR-gamma ligand binding domain expressed in CHO-K1 cells to EC50 for agonist activity at Gal4-fused mouse PPAR-delta ligand binding domain expressed in CHO-K1 cells.
The target in assay [5] is T4, Peroxisome proliferator-activated receptor alpha (Mus musculus, UniProt P23204).
T4 sequence (P23204 whole entry): T3 sequence (whole entry)
The experiment in a line: Agonist activity at Gal4-fused mouse PPAR-alpha ligand binding domain expressed in CHO-K1 cells assessed as receptor transactivation incubated for 24 to 48 hrs by luciferase reporter gene assay.

Assay [6] deals with T5, Peroxisome proliferator-activated receptor alpha (Homo sapiens) (UniProt Q07869).
T5 sequence (whole entry): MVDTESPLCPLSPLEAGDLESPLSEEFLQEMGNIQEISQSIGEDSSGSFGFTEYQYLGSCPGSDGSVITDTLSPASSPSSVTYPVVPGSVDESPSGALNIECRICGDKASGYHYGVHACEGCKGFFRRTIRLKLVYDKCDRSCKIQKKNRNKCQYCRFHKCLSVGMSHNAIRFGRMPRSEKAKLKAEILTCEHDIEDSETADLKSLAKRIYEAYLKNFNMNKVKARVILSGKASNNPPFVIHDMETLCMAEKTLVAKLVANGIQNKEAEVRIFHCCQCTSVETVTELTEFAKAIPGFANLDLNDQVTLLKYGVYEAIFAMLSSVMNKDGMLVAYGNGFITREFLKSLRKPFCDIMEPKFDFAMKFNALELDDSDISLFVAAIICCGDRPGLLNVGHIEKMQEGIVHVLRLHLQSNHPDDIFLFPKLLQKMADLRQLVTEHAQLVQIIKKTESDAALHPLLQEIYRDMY
The experiment in a line: Agonist activity at Gal4-fused human PPAR-alpha ligand binding domain expressed in CHO-K1 cells assessed as receptor transactivation incubated for 24 to 48 hrs by luciferase reporter gene assay relative to control. The following applies: time lower 24.0 hrs, time upper […].

Assay [7] is filed under the species Mus musculus. Kind of assay: Selectivity ratio of EC50 for agonist activity at Gal4-fused mouse PPAR-alpha ligand binding domain expressed in CHO-K1 cells to EC50 for agonist activity at Gal4-fused mouse PPAR-delta ligand binding domain expressed in CHO-K1 cells.

Turning to `Cc1ccc(CC(=O)O)cc1OCCC1CCN(c2nc3ccc(Cl)cc3s2)CC1`, the Emax was 16.2% in assay [1], 20% in assay [2], 15.5% in assay [3] and 8% in assay [6]. Besides, the Ratio EC50 in the assay filed under Homo sapiens amounted to 39; in the assay filed under Mus musculus [4] it was 10; in the assay filed under Mus musculus [7], 16. Besides, the EC50 in assay [5] was 1130 nM.
